Experimental data: patent US12168802B2, “Methods of diagnosing and treating CD55 deficiency, hyperactivation of complement, angiopathic thrombosis and protein losing enteropathy (CHAPLE), a newly identified orphan disease” (The United States of America, as represented by the …, priority 2016, dated 2024)

Tests used:
HUVECs = test: Surface marker expression on HUVECs after TNFα or ATRA treatment (flow cytometry); type: cell-based, human
Method: FIGS. 9A, 9B, 9C, 9D, 9E, 9F, 9G, 9H, 9I, 9J, 9K, 9L, 9M, 9N, 90, and 9P. Changes in inflammatory cytokine production by CD55 deficient cells promote pro-thrombotic changes in endothelial cells. Cytokine secretion in control and patient T cells following restimulation with anti-CD3 for 48 hours. Cells were either left untreated or treated with a combination of C3aR and C5aR1 inhibitors, both at 10 μM final concentration. Each patient point represents the average of at least three independent experiments. Results are for TNFα, IL10, or IFNγ (A, B, and C respectively). Anaphylatoxin receptor surface expression on proliferating CD4^+ T cells grown in complete RPMI supplemented with 100 u/mL IL2, isotype: filled grey line, sample: solid black line (D). C3aR expression on proliferating CD4^+ T cells grown in serum free X-vivo15 media supplemented with 100 u/mL IL-2 w/wo 10 nM ATRA, grey and black line respectively, isotype: filled grey line (E). IL-10 production in control and patient T cells stimulated with anti-CD3 and stimulatory antibodies directed against the indicated costimulatory molecules (F). Flow plots of thrombomodulin (TM) and Tissue Factor (TF) expression on HUVECs cultured for 24 hours w/wo 10 ng/mL TNFα (G). Quantification of the change in TM and TF expression on HUVECs in response to 24 hour culture with increasing doses of TNFα (H). Flow plots of CD46 and CD59 expression on HUVECs cultured for 24 hours w/wo 10 ng/mL TNFα (I). Quantification of CD46, CD59, and CD55 expression on HUVECs in response to 24 hour culture with increasing doses of TNFα (J, K, and L, respectively). Quantification of the change in TM and TF expression on HUVECs in response to 48 hour culture with increasing doses of ATRA (M). Quantification of CD46, CD59, and CD55 expression on HUVECs in response to 48 hour culture with increasing doses of ATRA (N, O, and P, respectively). (not significant (n.s.), * p<0.05, **p<0.01, ***p<0.001).
Flow Cytometry. Adherent cells were treated with 0.05% trypsin EDTA to lift them from the surface followed by addition of 5% FBS to inactivate the trypsin. Suspension cells were collected from culture following mixture of the culture by repeat pipetting. Cells were washed and resuspended in FACS buffer (1% FBS, 0.05% sodium azide, and 5 mM EDTA in PBS) at 2×10^6 cells/mL. Staining or isotype antibodies were added at 1:200 final dilutions and incubated with cells at 4° C. for 30 minutes to 1 hour. Cells were then washed 3× and resuspended in FACS buffer with 1% PFA and analyzed by flow cytometry. Flow files were analyzed on FlowJo version 9.9 or above (FlowJo, LLC, Ashland, OR, USA).
HUVEC Experiments. Huvecs grown to 80% confluency, and before passage 8, were trypsonized and replated in 24 well tissue culture plates at 200,000 cells/well in Huvec media. Twenty-four hours later the indicated concentrations of TNFα, IL10, or all trans retinoic acid (ATRA) were added. Twenty-four hours later in the cast of TNFα or IL10 treatment or 48 hours later in the case of ATRA, cells were trypsonized and stained for the indicated surface markers following the described flow cytometry staining protocol. Cells were then immediately analyzed.

human CD4+ T cells = test: Surface expression of C3aR and gut homing markers on CD4+ T cells grown with ATRA; type: cell-based; settings: w/wo 10 nM ATRA
Method: FIGS. 9A, 9B, 9C, 9D, 9E, 9F, 9G, 9H, 9I, 9J, 9K, 9L, 9M, 9N, 90, and 9P. Changes in inflammatory cytokine production by CD55 deficient cells promote pro-thrombotic changes in endothelial cells. Cytokine secretion in control and patient T cells following restimulation with anti-CD3 for 48 hours. Cells were either left untreated or treated with a combination of C3aR and C5aR1 inhibitors, both at 10 μM final concentration. Each patient point represents the average of at least three independent experiments. Results are for TNFα, IL10, or IFNγ (A, B, and C respectively). […] Quantification of the change in TM and TF expression on HUVECs in response to 24 hour culture with increasing doses of TNFα (H). […] Quantification of CD46, CD59, and CD55 expression on HUVECs in response to 24 hour culture with increasing doses of TNFα (J, K, and L, respectively). Quantification of the change in TM and TF expression on HUVECs in response to 48 hour culture with increasing doses of ATRA (M). Quantification of CD46, CD59, and CD55 expression on HUVECs in response to 48 hour culture with increasing doses of ATRA (N, O, and P, respectively). […]
Flow Cytometry. […] Cells were then washed 3× and resuspended in FACS buffer with 1% PFA and analyzed by flow cytometry. Flow files were analyzed on FlowJo version 9.9 or above (FlowJo, LLC, Ashland, OR, USA).

human T cells = test: C3d complement deposition on T cells incubated with normal human serum (flow cytometry); type: cell-based; settings: 5% nHS, 100 μM Compstatin
Method: (§1) FIGS. 11A, 11B, and 11C. (A) C3d deposition on patient and control T cells were incubated in the presence or absence of 5% nHS with or without the addition of 100 μM Compstatin to block complement activation. (B) Ratio of C3a to C4a in culture supernatants after 24 hours of incubation with 5% nHS w/wo 100 μM compstatin. (C) Ratio of C5a to C4a in culture supernatants after 24 hours of incubation with 5% nHS or without 100 μM compstatin. ***=p<0.001.
Complement Deposition. T cells (Patient CD4^+ T cell blasts or Jurkat T cells) were collected and washed 3× in basal RPMI. Cells were then resuspended in basal media and rested for 2-3 hours at 37° C. to allow any deposited complement components to be cleared from the cell surface. Rested cells were then collected and resupended in basal RPMI or basal RPMI that had been adjusted to pH 6.5 (acidified media) to a final concentration of 1×10^6 cells/mL. Non-heat shocked pooled normal human serum was then added to cell suspension for the indicated amount of time. Human serum that had been heat shocked at 56° C. for 30 minutes was used as a negative control for complement activation. […] Cells were washed 3× and resuspended in FACS buffer (PBS, 1% FBS) and analyzed for C3d deposition by flow cytometry. […] Cells were then treated with trypsin/EDTA to release cells into suspension, washed, and then analyzed for C3d deposition as above. […]

patient T cells = test: Anaphylatoxin ratios (C3a/C4a, C5a/C4a) in T cell culture supernatants; type: cell-based, human; settings: 24 hours incubation with 5% nHS, 100 μM Compstatin
Method: as §1
Compstatin Inhibits C3d Deposition on Human Cells. FIG. 11A illustrates that Compstatin inhibits C3d deposition on human T cells. […] In FIG. 11C, the ratio of C5a to C4a in culture supernatants of patient T cells after 24 hours of incubation with 5% nHS and 100 μM Compstatin is decreased, as compared to patient T cells not treated with Compstatin. ***=p<0.001.

[1] = 48 hour culture with increasing doses of ATRA

`CC1=C(/C=C/C(C)=C/C=C/C(C)=C/C(=O)O)C(C)(C)CCC1` [ATRA, all trans retinoic acid] was tested, and the CD46 expression (HUVECs; [1]) was “no change”, the CD55 expression (HUVECs; [1]) was “increase” and the CD59 expression (HUVECs; [1]) was “no change”. The thrombomodulin expression (HUVECs; [1]) was “dose-dependent decrease”, the “surface expression of C3aR on T cells” value (human CD4+ T cells; serum free X-vivo15 media) was “depended on the presence” and the “chemokine receptor CCR9 and integrin α4β7 (gut homing) on T cells” value (human CD4+ T cells; serum free conditions) was “expressed”.
For `CC[C@H](C)[C@H](N)C(=O)N[C@H]1CSSC[C@@H](C(=O)N[C@H](C(N)=O)[C@@H](C)O)NC(=O)[C@H](CCCN=C(N)N)NC(=O)[C@H](Cc2cnc[nH]2)NC(=O)[C@H](Cc2cnc[nH]2)NC(=O)CNC(=O)[C@H](Cc2c[nH]c3ccccc23)NC(=O)[C@H](CC(=O)O)NC(=O)[C@H](CCC(N)=O)NC(=O)[C@H](C(C)C)NC(=O)[C@H](C(C)C)NC1=O` [Compstatin], the “C3d deposition on patient T cells” value (human T cells) was “substantially inhibited”, the “ratio of C3a to C4a in culture supernatants” value (patient T cells) was “considerably decreased” and the “ratio of C5a to C4a in culture supernatants” value (patient T cells) was “decreased”.
In the case of TNFα, the “CD46 expression on endothelial cells” value (HUVECs; 24 hour culture with TNFα) is reported as “decreased”, the “CD55 expression on endothelial cells” value (HUVECs; 24 hour culture with TNFα) is reported as “modestly increasing” and the “CD59 expression on endothelial cells” value (HUVECs; 24 hour culture with TNFα) is reported as “decreased”. For the same compound, the “thrombomodulin (TM) and tissue factor (TF) expression on endothelial cells” value (HUVECs; 24 hour culture with TNFα) was “induces procoagulatory”.
